Each block holds one compound with its values, some of them ahead of it.
What was measured:
[1] = system: H929 multiple myeloma tumour line; experiment: In vitro cytotoxicity, Microculture Tetrazolium Assay; format: cell-based; settings: Homo sapiens, NCI-H929, 48 h, H929 cells, 48 hours exposure, MTT; read-out: IC50 (μM) MTT H929
Protocol: The cytotoxicity studies were carried out on the H929 multiple myeloma tumour line.
The cells are distributed onto microplates and exposed to the test compounds for 48 hours.

Mcl-1 protein = Mcl-1 protein (UniProtKB primary accession number: Q07820) (Homo sapiens, UniProt Q07820); experiment: Inhibition of Mcl-1 by fluorescence polarisation, Method 1; format: binding; settings: fluorescence polarisation test; Method 2 values are underlined in the patent (underlining not visible here); read-out: IC50 (M) Mcl-1 FP
Sequence of Mcl-1 protein (Q07820 whole entry): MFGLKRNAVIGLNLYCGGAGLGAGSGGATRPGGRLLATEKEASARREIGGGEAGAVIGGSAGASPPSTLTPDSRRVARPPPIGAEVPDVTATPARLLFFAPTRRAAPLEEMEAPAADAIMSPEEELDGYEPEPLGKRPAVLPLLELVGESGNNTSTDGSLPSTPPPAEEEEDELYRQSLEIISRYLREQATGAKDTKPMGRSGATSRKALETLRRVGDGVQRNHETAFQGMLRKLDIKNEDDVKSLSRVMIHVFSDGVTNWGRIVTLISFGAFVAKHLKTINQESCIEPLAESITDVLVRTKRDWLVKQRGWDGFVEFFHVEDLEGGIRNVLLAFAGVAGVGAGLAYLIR
Summary of the method: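 Compounds were tested as 11-point serial dilutions at 5% final DMSO against 5 nM Mcl-1 with 1 nM fluorescein-labelled ligand in 10 mM HEPES, 150 mM NaCl, 0.05% Tween 20, pH 7.4. Relative binding potency was read by fluorescence polarisation.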

IC50 (Mcl-1 protein): 2.9e-09 M
SMILES: Cc1ncccc1-c1nccc(COc2ccccc2CC(Oc2ncnc3sc(-c4ccc(F)cc4)c(-c4ccc(OCCN5CCN(C)CC5)c(Cl)c4C)c23)C(=O)O)n1 [Example 116, (2R)-2-{[(5Sa)-5-{3-chloro-2-methyl-4-[2-(4-methylpiperazin-1-yl)ethoxy]phenyl}-6-(4-fluorophenyl)thieno[2,3-d]pyrimidin-4-yl]oxy}-3-(2-{[2-(2-methylpyridin-3-yl)pyrimidin-4-yl]methoxy}phenyl)propanoic acid]
IC50 [1]: 0.007 µM

IC50 (Mcl-1 protein): 4.8e-09 M
SMILES: Cc1c(-c2c(-c3ccc(F)cc3)sc3ncnc(OC(Cc4ccccc4OCc4ccnc(-c5ccnc(Cl)c5)n4)C(=O)O)c23)ccc(OCCN2CCN(C)CC2)c1Cl [Example 119, (2R)-2-{[(5Sa)-5-{3-chloro-2-methyl-4-[2-(4-methylpiperazin-1-yl)ethoxy]phenyl}-6-(4-fluorophenyl)thieno[2,3-d]pyrimidin-4-yl]oxy}-3-(2-{[2-(2-chloropyridin-4-yl)pyrimidin-4-yl]methoxy}phenyl)propanoic acid]
IC50 [1]: 0.02 µM

IC50 (Mcl-1 protein): 5.6e-09 M
SMILES: Cc1sccc1-c1nccc(COc2ccccc2CC(Oc2ncnc3sc(-c4ccc(F)cc4)c(-c4ccc(OCCN5CCN(C)CC5)c(Cl)c4C)c23)C(=O)O)n1 [Example 121, (2R)-2-{[(5Sa)-5-{3-chloro-2-methyl-4-[2-(4-methylpiperazin-1-yl)ethoxy]phenyl}-6-(4-fluorophenyl)thieno[2,3-d]pyrimidin-4-yl]oxy}-3-(2-{[2-(2-methylthiophen-3-yl)pyrimidin-4-yl]methoxy}phenyl)propanoic acid]
IC50 [1]: 0.015 µM

IC50 (Mcl-1 protein): 3.8e-09 M
SMILES: Cc1cncc(-c2nccc(COc3ccccc3CC(Oc3ncnc4sc(-c5ccc(F)cc5)c(-c5ccc(OCCN6CCN(C)CC6)c(Cl)c5C)c34)C(=O)O)n2)c1 [Example 122, (2R)-2-{[(5Sa)-5-{3-chloro-2-methyl-4-[2-(4-methylpiperazin-1-yl)ethoxy]phenyl}-6-(4-fluorophenyl)thieno[2,3-d]pyrimidin-4-yl]oxy}-3-(2-{[2-(5-methylpyridin-3-yl)pyrimidin-4-yl]methoxy}phenyl)propanoic acid]
IC50 [1]: 0.01 µM

IC50 (Mcl-1 protein): 4.3e-09 M
SMILES: Cc1cscc1-c1nccc(COc2ccccc2CC(Oc2ncnc3sc(-c4ccc(F)cc4)c(-c4ccc(OCCN5CCN(C)CC5)c(Cl)c4C)c23)C(=O)O)n1 [Example 124, (2R)-2-{[(5Sa)-5-{3-chloro-2-methyl-4-[2-(4-methylpiperazin-1-yl)ethoxy]phenyl}-6-(4-fluorophenyl)thieno[2,3-d]pyrimidin-4-yl]oxy}-3-(2-{[2-(4-methylthiophen-3-yl)pyrimidin-4-yl]methoxy}phenyl)propanoic acid]
IC50 [1]: 0.024 µM

IC50 (Mcl-1 protein): 7.3e-09 M
SMILES: Cc1c(-c2c(-c3ccc(F)cc3)sc3ncnc(OC(Cc4ccccc4OCc4ccn[nH]4)C(=O)O)c23)ccc(OCCN2CCN(C)CC2)c1Cl [Example 125, (2R)-2-{[(5Sa)-5-{3-chloro-2-methyl-4-[2-(4-methylpiperazin-1-yl)ethoxy]phenyl}-6-(4-fluorophenyl)thieno[2,3-d]pyrimidin-4-yl]oxy}-3-[2-(1H-pyrazol-5-ylmethoxy)phenyl]propanoic acid]
IC50 [1]: 0.354 µM

IC50 (Mcl-1 protein): 1.4e-08 M
SMILES: Cc1c(-c2c(-c3ccc(F)cc3)sc3ncnc(OC(Cc4ccccc4OCC4CCCO4)C(=O)O)c23)ccc(OCCN(C)C)c1Cl [Example 126, (2R)-2-{[(5Sa)-5-{3-chloro-4-[2-(dimethylamino)ethoxy]-2-methylphenyl}-6-(4-fluorophenyl)thieno[2,3-d]pyrimidin-4-yl]oxy}-3-{2-[(2R)-tetrahydrofuran-2-ylmethoxy]phenyl}propanoic acid]
IC50 [1]: 0.7 µM

IC50 (Mcl-1 protein): 2e-08 M
SMILES: Cc1c(-c2c(-c3ccc(F)cc3)sc3ncnc(OC(Cc4ccccc4OCC(F)(F)F)C(=O)O)c23)ccc(OCCN(C)C)c1Cl [Example 127, (2R)-2-{[(5Sa)-5-{3-chloro-4-[2-(dimethylamino)ethoxy]-2-methylphenyl}-6-(4-fluorophenyl)thieno[2,3-d]pyrimidin-4-yl]oxy}-3-[2-(2,2,2-trifluoroethoxy)phenyl]propanoic acid]
IC50 [1]: 0.558 µM

IC50 (Mcl-1 protein): 4e-09 M
SMILES: Cc1c(-c2c(-c3ccc(F)cc3)sc3ncnc(OC(Cc4ccccc4OCc4ccnc(-c5ccncc5)n4)C(=O)O)c23)ccc(OCCN(C)C)c1Cl [Example 128, (2R)-2-{[(5Sa)-5-{3-chloro-4-[2-(dimethylamino)ethoxy]-2-methylphenyl}-6-(4-fluorophenyl)thieno[2,3-d]pyrimidin-4-yl]oxy}-3-(2-{[2-(pyridin-4-yl)pyrimidin-4-yl]methoxy}phenyl)propanoic acid]
IC50 [1]: 0.018 µM

IC50 (Mcl-1 protein): 2.2e-09 M
SMILES: Cc1c(-c2c(-c3ccc(F)cc3)sc3ncnc(OC(Cc4ccccc4OCc4ccnc(N5CCOCC5)n4)C(=O)O)c23)ccc(OCCN(C)C)c1Cl [Example 129, (2R)-2-{[(5Sa)-5-{3-chloro-4-[2-(dimethylamino)ethoxy]-2-methylphenyl}-6-(4-fluorophenyl)thieno[2,3-d]pyrimidin-4-yl]oxy}-3-(2-{[2-(morpholin-4-yl)pyrimidin-4-yl]methoxy}phenyl)propanoic acid]
IC50 [1]: 0.069 µM

Further lines, the compound ahead of its results:

SMILES: COCCOCCOc1ccccc1CC(Oc1ncnc2sc(-c3ccc(F)cc3)c(-c3ccc(OCCN4CCN(C)CC4)c(Cl)c3C)c12)C(=O)O [Example 105, (2R)-2-{[(5Sa)-5-{3-chloro-2-methyl-4-[2-(4-methylpiperazin-1-yl)ethoxy]phenyl}-6-(4-fluorophenyl)thieno[2,3-d]pyrimidin-4-yl]oxy}-3-{2-[2-(2-methoxyethoxy)ethoxy]phenyl}propanoic acid]
IC50 [1]: 0.251 µM | IC50 (Mcl-1 protein): 1.2e-08 M

SMILES: COCCOCCOCCOc1ccccc1CC(Oc1ncnc2sc(-c3ccc(F)cc3)c(-c3ccc(OCCN4CCN(C)CC4)c(Cl)c3C)c12)C(=O)O [Example 106, (2R)-2-{[(5Sa)-5-{3-chloro-2-methyl-4-[2-(4-methylpiperazin-1-yl)ethoxy]phenyl}-6-(4-fluorophenyl)thieno[2,3-d]pyrimidin-4-yl]oxy}-3-(2-{2-[2-(2-methoxyethoxy)ethoxy]ethoxy}phenyl)propanoic acid]
IC50 [1]: 0.195 µM | IC50 (Mcl-1 protein): 1.2e-08 M

SMILES: COc1ccc(-c2nccc(COc3ccccc3CC(Oc3ncnc4sc(-c5ccc(F)cc5)c(-c5ccc(OCCN6CCN(C)CC6)c(Cl)c5C)c34)C(=O)O)n2)cc1 [Example 107, (2R)-2-{[(5Sa)-5-{3-chloro-2-methyl-4-[2-(4-methylpiperazin-1-yl)ethoxy]phenyl}-6-(4-fluorophenyl)thieno[2,3-d]pyrimidin-4-yl]oxy}-3-(2-{[2-(4-methoxyphenyl)pyrimidin-4-yl]methoxy}phenyl)propanoic acid]
IC50 [1]: 0.007 µM | IC50 (Mcl-1 protein): 5.3e-09 M

SMILES: Cc1ccc(-c2nccc(COc3ccccc3CC(Oc3ncnc4sc(-c5ccc(F)cc5)c(-c5ccc(OCCN6CCN(C)CC6)c(Cl)c5C)c34)C(=O)O)n2)cn1 [Example 108, (2R)-2-{[(5Sa)-5-{3-chloro-2-methyl-4-[2-(4-methylpiperazin-1-yl)ethoxy]phenyl}-6-(4-fluorophenyl)thieno[2,3-d]pyrimidin-4-yl]oxy}-3-(2-{[2-(6-methylpyridin-3-yl)pyrimidin-4-yl]methoxy}phenyl)propanoic acid]
IC50 [1]: 0.007 µM | IC50 (Mcl-1 protein): 3.5e-09 M

SMILES: Cc1c(-c2c(-c3ccc(F)cc3)sc3ncnc(OC(Cc4ccccc4OCc4ccnc(-c5ccc(C(F)(F)F)nc5)n4)C(=O)O)c23)ccc(OCCN2CCN(C)CC2)c1Cl [Example 109, (2R)-2-{[(5Sa)-5-{3-chloro-2-methyl-4-[2-(4-methylpiperazin-1-yl)ethoxy]phenyl}-6-(4-fluorophenyl)thieno[2,3-d]pyrimidin-4-yl]oxy}-3-[2-({2-[6-(trifluoromethyl)pyridin-3-yl]pyrimidin-4-yl}methoxy)phenyl]propanoic acid]
IC50 [1]: 0.108 µM | IC50 (Mcl-1 protein): 8.4e-09 M

SMILES: Cc1c(-c2c(-c3ccc(F)cc3)sc3ncnc(OC(Cc4ccccc4OCc4ccnc(-c5ccc(Cl)nc5)n4)C(=O)O)c23)ccc(OCCN2CCN(C)CC2)c1Cl [Example 110, (2R)-2-{[(5Sa)-5-{3-chloro-2-methyl-4-[2-(4-methylpiperazin-1-yl)ethoxy]phenyl}-6-(4-fluorophenyl)thieno[2,3-d]pyrimidin-4-yl]oxy}-3-(2-{[2-(6-chloropyridin-3-yl)pyrimidin-4-yl]methoxy}phenyl)propanoic acid]
IC50 [1]: 0.022 µM | IC50 (Mcl-1 protein): 4.3e-09 M

SMILES: COc1ccc(-c2nccc(COc3ccccc3CC(Oc3ncnc4sc(-c5ccc(F)cc5)c(-c5ccc(OCCN6CCN(C)CC6)c(Cl)c5C)c34)C(=O)O)n2)cn1 [Example 111, (2R)-2-{[(5Sa)-5-{3-chloro-2-methyl-4-[2-(4-methylpiperazin-1-yl)ethoxy]phenyl}-6-(4-fluorophenyl)thieno[2,3-d]pyrimidin-4-yl]oxy}-3-(2-{[2-(6-methoxypyridin-3-yl)pyrimidin-4-yl]methoxy}phenyl)propanoic acid]
IC50 [1]: 0.008 µM | IC50 (Mcl-1 protein): 3.3e-09 M

SMILES: COc1cccc(-c2nccc(COc3ccccc3CC(Oc3ncnc4sc(-c5ccc(F)cc5)c(-c5ccc(OCCN6CCN(C)CC6)c(Cl)c5C)c34)C(=O)O)n2)c1 [Example 112, (2R)-2-{[(5Sa)-5-{3-chloro-2-methyl-4-[2-(4-methylpiperazin-1-yl)ethoxy]phenyl}-6-(4-fluorophenyl)thieno[2,3-d]pyrimidin-4-yl]oxy}-3-(2-{[2-(3-methoxyphenyl)pyrimidin-4-yl]methoxy}phenyl)propanoic acid]
IC50 [1]: 0.011 µM | IC50 (Mcl-1 protein): 5.6e-09 M

From patent US9670227B2, “Thienopyrimidine derivatives, a process for their preparation and pharmaceutical compositions containing them” (LES LABORATOIRES SERVIER, priority 2013, dated 2017)
